These results are taken from article PMC9026428, “New Peptide Based Fluconazole Conjugates with Expanded Molecular Targets” (Pharmaceutics, 2022).

Values after ≈ are worked out from the molar mass of the structure shown. Residues, ends and D or L forms follow the SMILES beside them. *: point of attachment. X1 = O=C(CCCC(=O)*)OC(Cn1cncn1)(Cn1cncn1)c1ccc(F)cc1F

In one series the test system is Candida albicans 190. The series can be described thus: microbe, parasite or virus in culture. To be noted: C. albicans 190 (fluconazole-resistant clinical isolate), RPMI 1640/MOPS pH 7.0, 24 h, 37 °C, triplicate; for MIC50: at least 50% growth inhibition vs growth control; for MIC90: lowest concentration with no visible growth. The method in brief:
(§1)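 CLSI M27-A3-based microdilution, RPMI/MOPS pH 7.0, 24 h at 37 °C, ~1% DMSO.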

The next series deals with Candida albicans 48. The series can be described thus: microbe, parasite or virus in culture. To be noted: C. albicans 48 (fluconazole-resistant clinical isolate), RPMI 1640/MOPS pH 7.0, 24 h, 37 °C, triplicate; for MIC50: at least 50% growth inhibition vs growth control; for MIC90: lowest concentration with no visible growth. Summed up:
as §1

In another series the test system is Candida albicans 574. Description: microbe, parasite or virus in culture. To be noted: C. albicans 574 (fluconazole-resistant clinical isolate), RPMI 1640/MOPS pH 7.0, 24 h, 37 °C, triplicate; for MIC50: at least 50% growth inhibition vs growth control; for MIC90: lowest concentration with no visible growth. The method in brief: as §1
Another series has as its system Candida albicans 604. The series can be described thus: microbe, parasite or virus in culture. Particulars: C. albicans 604 (fluconazole-resistant clinical isolate), RPMI 1640/MOPS pH 7.0, 24 h, 37 °C, triplicate; for MIC50: at least 50% growth inhibition vs growth control; for MIC90: lowest concentration with no visible growth. The method in brief:
as §1

In series [1] the test system is Candida albicans ATCC 10231. The series can be described thus: microbe, parasite or virus in culture. To be noted: C. albicans ATCC 10231, RPMI 1640/MOPS pH 7.0, 24 h, 37 °C, triplicate; for MIC50: at least 50% growth inhibition vs growth control; for MIC90: lowest concentration with no visible growth. The method in brief:
as §1

The next series has as its system Candida albicans Gu4. Description: microbe, parasite or virus in culture. Particulars: C. albicans Gu4 (fluconazole-sensitive isolate), RPMI 1640/MOPS pH 7.0, 24 h, 37 °C, triplicate; for MIC50: at least 50% growth inhibition vs growth control; for MIC90: lowest concentration with no visible growth. Summed up: as §1
A further series relates to Candida albicans Gu5. Description: microbe, parasite or virus in culture. To be noted: C. albicans Gu5 (fluconazole-resistant, CDR1/2 overexpression), RPMI 1640/MOPS pH 7.0, 24 h, 37 °C, triplicate; for MIC50: at least 50% growth inhibition vs growth control; for MIC90: lowest concentration with no visible growth. The method in brief:
as §1

In another series the test system is Candida krusei DSM 11226. Description: microbe, parasite or virus in culture. Particulars: C. krusei DSM 11226, 37 °C; for MIC50 / MIC90: RPMI 1640/MOPS pH 7.0, 24 h, triplicate; for MIC50: at least 50% growth inhibition vs growth control; for MIC90: lowest concentration with no visible growth. The method in brief: as §1
Series [2] in a line: MTT cytotoxicity assay. To be noted: human. As to the method:
(§2) The assessment of antifungal potential of synthesized agents was carried out using four reference strains (C. albicans ATCC 10231, C. albicans SC5314, C. glabrata DSM […] and C. krusei DSM […]) and six clinical isolates of fluconazole-resistant C. albicans that were provided by the Hospital of Medical University of Gdansk, Poland. Moreover, four C. albicans isolates, assigned as B3, B4, Gu4 and Gu5, were used for investigation whether the synthesized fluconazole derivatives were effectively removed from the yeast cells by the drug efflux transporters, as in the case of fluconazole. These strains were kindly provided by Prof. Joachim Morschhäuser from University of Würzburg (Würzburg, Germany). Strains Gu4 and B3 were fluconazole-sensitive isolates obtained from early infection episodes, while Gu5 and B4 were the corresponding fluconazole-resistant isolates obtained from later episodes in the same patients treated with fluconazole. The lack of susceptibility of the Gu5 strain to fluconazole was a consequence of overexpression of CDR1/2 genes encoding ABC transporters, whereas the resistance of B4 strain was caused by overexpression of the MDR1 gene encoding a membrane transport protein of the major facilitator superfamily (MFS). All of these Candida spp. strains were maintained on YPD agar plates (1% (w/v) yeast extract, 2% (w/v) peptone, 2% (w/v) glucose, 2% (w/v) agar) at 30 °C for 16–24 h. For all of the assays aimed at assessing the antifungal potential of the synthesized agents, the yeasts were cultivated at 37 °C in RPMI 1640 medium (with L-glutamine, without sodium bicarbonate, Sigma-Aldrich, Darmstadt, Germany)) buffered to a pH of 7.0 with 0.165 M morpholinepropanesulfonic acid (MOPS) buffer (Sigma-Aldrich). In this study, we used the human foreskin fibroblast cell line Hs27 (ATCC CRL 1634TM) and the human endothelial cell line HUVEC (C2519A), purchased from Lonza Group AG, (Basel, Switzerland). The Hs27 cells were maintained in cell media consisting of Dulbecco’s modified Eagles medium (DMEM), (Corning, Arizona, USA) with 10% fetal bovine serum (FBS), (Corning, Port Elizabeth, South Africa), 1% penicillin/streptomycin (Sigma-Aldrich Inc., Darmstadt, Germany), and 1% L-glutamine (Corning, Arizona, USA). The human endothelial cell line was maintained in cell media consisting of Endothelial Cell Growth Medium-2 Single Quots Kit (Lonza, USA). Both cell lines were cultured in an incubator at 37 °C and 5% CO2.
(§3) Hs27 and HUVEC mammalian cell lines were cultured as mentioned above. Once cell lines were about 80% confluent, cells were counted by a hemacytometer (Hausser Scientific, Horsham, PA, USA) and plated in 96-well microtiter plates at concentrations of 4500 cells per well for Hs27 and 2000 cells per well for HUVEC. Cells were allowed to attach overnight. […] The final concentration of DMSO was ensured to be around 1% in all experiments. Cells were incubated with studied compounds for 72 h at 37 °C and 5% CO2. After incubation, 20 µL of MTT solution in PBS (4 mg/mL) was added to all wells and incubated further for 3 h at 37 °C. Formed formazan crystals were dissolved in 150 µL DMSO, and absorbance was measured using an Asys UVM340 multi-well plate reader at λ = 540 nm. Cytotoxicity was determined compared to drug-free control. All experiments were performed in biological triplicates.

Series [3] deals with Hs27 cells (human foreskin fibroblast cell line). Description: MTT cytotoxicity assay. To be noted: Hs27 cells, MTT, 72 h, 37 °C, 100–1.5 μM, biological triplicates. As to the method: as §2, §3
A short description of series [4]: MTT cytotoxicity assay. Particulars: human. As to the method:
as §2, §3
The source holds these as a separate data set.

For series [5], the system named is HUVEC cells (human umbilical venous endothelial primary cells). Description: MTT cytotoxicity assay. To be noted: HUVEC cells, MTT, 72 h, 37 °C, 100–1.5 μM, biological triplicates. As for the experimental part:
as §2, §3

As for `CSCC[C@H](NC(=O)[C@H](C)NC(=O)[C@H](CCCNC(=N)N)NC(=O)[C@H](CCCCN)NC(=O)[C@H](Cc1c[nH]c2ccccc12)NC(=O)[C@H](CCC(N)=O)NC(=O)[C@H](Cc1ccccc1)NC(=O)[C@H](CS)NC(=O)CCCC(=O)OC(Cn1cncn1)(Cn1cncn1)c1ccc(F)cc1F)C(=O)N[C@@H](CCCNC(=N)N)C(=O)N[C@@H](CCCCN)C(=O)N[C@H](C(=O)N[C@@H](CCCNC(=N)N)C(N)=O)C(C)C` [FLCpOH-HLopt2-NH2] (X1-CFQWKRAMRKVR-NH2), the MIC50 was 250 µM (≈ 503 µg/mL) in the series with Candida albicans 190; 250 µM (≈ 503 µg/mL) against Candida albicans 48; 250 µM (≈ 503 µg/mL) in the series on Candida albicans 574; greater than 250 µM with Candida albicans 604; 125 µM (≈ 251 µg/mL) in [1]; greater than 250 µM against Candida albicans Gu4. Moreover, the MIC50 in the series with Candida albicans Gu5 and against Candida krusei DSM 11226 was greater than 250 µM in each case. Besides, the MIC90 against Candida albicans 190 is recorded as greater than 250 µM; with Candida albicans 48, greater than 250 µM; in the series on Candida albicans 574, greater than 250 µM; against Candida albicans 604 it was greater than 250 µM; in [1] it was 250 µM (≈ 503 µg/mL); in the series on Candida albicans Gu4, greater than 250 µM. Besides, the MIC90 with Candida albicans Gu5 and against Candida krusei DSM 11226 was greater than 250 µM in each case. Further, the IC50 at 72 h in the series “MTT cytotoxicity assay [2]” and in the series “MTT cytotoxicity assay [4]” was greater than 100 µM throughout. For the same compound, the “In vitro cytotoxicity IC90 ± SEM” value in series [3] and in series [5] was greater than 100 µM throughout.

As for `CSCC[C@H](NC(=O)[C@H](CCCNC(=N)N)NC(=O)[C@H](Cc1c[nH]c2ccccc12)NC(=O)[C@H](CCC(N)=O)NC(=O)[C@H](Cc1c[nH]c2ccccc12)NC(=O)[C@H](CCCNC(=N)N)NC(=O)[C@H](CCCNC(=N)N)NC(=O)[C@H](CS)NC(=O)[C@H](CCCCN)NC(=O)[C@H](Cc1ccccc1)NC(=O)CCCC(=O)OC(Cn1cncn1)(Cn1cncn1)c1ccc(F)cc1F)C(N)=O` [FLCpOH-LFacinB(2-11)-NH2] (X1-FKCRRWQWRM-NH2), the MIC50 against Candida albicans 190 is 190 µM (≈ 361 µg/mL); in the series with Candida albicans 48, 250 µM (≈ 475 µg/mL); against Candida albicans 574 it was 190 µM (≈ 361 µg/mL); in the series with Candida albicans 604 it was 190 µM (≈ 361 µg/mL); in series [1], 125 µM (≈ 237 µg/mL); with Candida albicans Gu4, greater than 250 µM. Further, the results for the MIC50 against Candida albicans Gu5 and against Candida krusei DSM 11226 were greater than 250 µM and 31 µM (≈ 58.8 µg/mL), respectively. Moreover, the MIC90 was 250 µM (≈ 475 µg/mL) in the series with Candida albicans 190; greater than 250 µM in the series with Candida albicans 48; 250 µM (≈ 475 µg/mL) with Candida albicans 574; 250 µM (≈ 475 µg/mL) in the series on Candida albicans 604; 250 µM (≈ 475 µg/mL) in [1]; greater than 250 µM in the series on Candida albicans Gu4. Besides, the MIC90 was greater than 250 µM in the series on Candida albicans Gu5 and 62 µM (≈ 118 µg/mL) against Candida krusei DSM 11226. Further, the minimal fungicidal concentration (MFC) against Candida krusei DSM 11226 (aliquots plated on YPD agar, 24 h, lowest concentration with no colony growth) came to 125 µM (≈ 237 µg/mL). Besides, the IC50 at 72 h in “MTT cytotoxicity assay [2]” and in the series “MTT cytotoxicity assay [4]” was greater than 100 µM throughout. Besides, the “In vitro cytotoxicity IC90 ± SEM” value in series [3] and in series [5] was greater than 100 µM in each case.
